Columns and labels:
Assay in all cases: kinase panel
Type in all cases: biochemical
[1] = molecular target: ALK4(h) (Homo sapiens, UniProt P36896)
Outline: (§1)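 Values are percent inhibition from kinome-wide profiling of three series compounds across 231 kinases, with a structurally similar analogue tested on only 98 selected kinases.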

[2] = molecular target: ASK1(h) (Homo sapiens, UniProt Q99683)
Outline: as §1

[3] = molecular target: CK1γ1(h) (Homo sapiens, UniProt Q9HCP0)
Outline: as §1

[4] = molecular target: CK2α2(h) (Homo sapiens, UniProt P19784)
Outline: as §1

[5] = molecular target: CSK(h) (Homo sapiens, UniProt P41240)
Outline: as §1

[6] = molecular target: DCAMKL2(h) (Homo sapiens, UniProt Q8N568)
Outline: as §1

[7] = molecular target: DMPK(h) (Homo sapiens, UniProt Q09013)
Outline: as §1

[8] = molecular target: EphA2(h) (Homo sapiens, UniProt P29317)
Outline: as §1

[9] = molecular target: EphA4(h) (Homo sapiens, UniProt P54764)
Outline: as §1

[10] = molecular target: EphA8(h) (Homo sapiens, UniProt P29322)
Outline: as §1

[11] = molecular target: EphB4(h) (Homo sapiens, UniProt P54760)
Outline: as §1

[12] = molecular target: FGFR4(h) (Homo sapiens, UniProt P22455)
Outline: as §1

[13] = molecular target: GRK5(h) (Homo sapiens, UniProt P34947)
Outline: as §1

[14] = molecular target: GRK6(h) (Homo sapiens, UniProt P43250)
Outline: as §1

[15] = molecular target: HIPK2(h) (Homo sapiens, UniProt Q9H2X6)
Outline: as §1

[16] = molecular target: HIPK3(h) (Homo sapiens, UniProt Q9H422)
Outline: as §1

[17] = molecular target: IGF-1R(h), activated (Homo sapiens, UniProt P08069)
Outline: as §1

[18] = molecular target: IR(h), activated (Homo sapiens, UniProt P06213)
Outline: as §1

[19] = molecular target: IRR(h) (Homo sapiens, UniProt P14616)
Outline: as §1

[20] = molecular target: Itk(h) (Homo sapiens, UniProt Q08881)
Outline: as §1

[21] = molecular target: LKB1(h) (Homo sapiens, UniProt Q15831)
Outline: as §1

[22] = molecular target: Lck(h) activated (Homo sapiens, UniProt P06239)
Outline: as §1

[23] = molecular target: Lyn(h) (Homo sapiens, UniProt P07948)
Outline: as §1

[24] = molecular target: MAPK2(h) (Homo sapiens, UniProt P28482)
Outline: as §1

[25] = molecular target: MSSK1(h) (Homo sapiens, UniProt Q9UPE1)
Outline: as §1

[26] = molecular target: MuSK(h) (Homo sapiens, UniProt O15146)
Outline: as §1

[27] = molecular target: NEK6(h) (Homo sapiens, UniProt Q9HC98)
Outline: as §1

[28] = molecular target: PAK4(h) (Homo sapiens, UniProt O96013)
Outline: as §1

[29] = molecular target: PDGFRα(h) (Homo sapiens, UniProt P16234)
Outline: as §1

[30] = molecular target: PKA(h) (Homo sapiens, UniProt P17612)
Outline: as §1

[31] = molecular target: PKCβII(h) (Homo sapiens, UniProt P05771)
Outline: as §1

[32] = molecular target: PKCδ(h) (Homo sapiens, UniProt Q05655)
Outline: as §1

[33] = molecular target: PKG1β(h) (Homo sapiens, UniProt Q13976)
Outline: as §1

[34] = molecular target: Pim-3(h) (Homo sapiens, UniProt Q86V86)
Outline: as §1

[35] = molecular target: Plk3(h) (Homo sapiens, UniProt Q9H4B4)
Outline: as §1

[36] = molecular target: STK33(h) (Homo sapiens, UniProt Q9BYT3)
Outline: as §1

[37] = molecular target: Snk(h) (Homo sapiens, UniProt Q9NYY3)
Outline: as §1

[38] = molecular target: TAO2(h) (Homo sapiens, UniProt Q9UL54)
Outline: as §1

[39] = molecular target: TGFBR1(h) (Homo sapiens, UniProt P36897)
Outline: as §1

[40] = molecular target: TSSK1(h) (Homo sapiens, UniProt Q9BXA7)
Outline: as §1

[41] = molecular target: ULK2(h) (Homo sapiens, UniProt Q8IYT8)
Outline: as §1

EphB4(h), sequence (P54760 16-987): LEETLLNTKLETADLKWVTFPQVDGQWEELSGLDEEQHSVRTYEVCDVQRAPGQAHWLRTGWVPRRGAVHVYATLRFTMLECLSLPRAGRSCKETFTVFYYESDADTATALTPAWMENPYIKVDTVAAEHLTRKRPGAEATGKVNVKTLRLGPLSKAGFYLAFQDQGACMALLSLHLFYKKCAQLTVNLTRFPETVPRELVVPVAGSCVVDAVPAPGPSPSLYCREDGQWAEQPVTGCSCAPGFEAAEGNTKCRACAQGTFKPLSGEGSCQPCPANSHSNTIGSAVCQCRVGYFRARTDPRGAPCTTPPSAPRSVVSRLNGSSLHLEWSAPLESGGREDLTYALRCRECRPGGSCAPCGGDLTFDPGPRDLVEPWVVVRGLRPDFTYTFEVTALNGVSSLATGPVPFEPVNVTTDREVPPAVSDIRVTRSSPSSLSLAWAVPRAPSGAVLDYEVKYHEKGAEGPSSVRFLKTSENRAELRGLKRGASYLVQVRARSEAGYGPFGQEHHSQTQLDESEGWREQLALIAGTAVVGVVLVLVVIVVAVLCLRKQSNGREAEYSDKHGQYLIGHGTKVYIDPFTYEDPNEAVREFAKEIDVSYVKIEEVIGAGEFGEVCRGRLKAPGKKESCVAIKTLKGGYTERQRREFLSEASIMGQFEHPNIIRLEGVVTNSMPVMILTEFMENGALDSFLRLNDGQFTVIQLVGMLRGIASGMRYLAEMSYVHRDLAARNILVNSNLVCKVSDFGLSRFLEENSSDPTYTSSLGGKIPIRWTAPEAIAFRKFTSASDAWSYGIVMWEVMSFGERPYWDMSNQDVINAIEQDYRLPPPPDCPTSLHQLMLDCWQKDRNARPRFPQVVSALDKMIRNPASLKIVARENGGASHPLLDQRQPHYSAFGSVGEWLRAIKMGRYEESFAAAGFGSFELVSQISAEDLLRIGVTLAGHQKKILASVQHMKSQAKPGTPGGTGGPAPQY
CK1γ1(h), sequence (Q9HCP0 whole entry): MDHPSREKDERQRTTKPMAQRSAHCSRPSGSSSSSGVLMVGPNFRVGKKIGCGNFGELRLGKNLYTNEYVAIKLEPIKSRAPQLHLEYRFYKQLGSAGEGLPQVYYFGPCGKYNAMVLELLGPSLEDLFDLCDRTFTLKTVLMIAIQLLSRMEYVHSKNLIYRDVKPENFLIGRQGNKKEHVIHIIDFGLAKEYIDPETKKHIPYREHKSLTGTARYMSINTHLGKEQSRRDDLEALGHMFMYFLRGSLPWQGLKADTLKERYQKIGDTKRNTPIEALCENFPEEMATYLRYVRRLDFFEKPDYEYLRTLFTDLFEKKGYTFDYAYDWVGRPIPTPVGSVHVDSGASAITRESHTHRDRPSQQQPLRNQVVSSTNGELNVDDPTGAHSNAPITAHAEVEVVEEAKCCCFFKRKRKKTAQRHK
Lck(h) activated, sequence (P06239 whole entry): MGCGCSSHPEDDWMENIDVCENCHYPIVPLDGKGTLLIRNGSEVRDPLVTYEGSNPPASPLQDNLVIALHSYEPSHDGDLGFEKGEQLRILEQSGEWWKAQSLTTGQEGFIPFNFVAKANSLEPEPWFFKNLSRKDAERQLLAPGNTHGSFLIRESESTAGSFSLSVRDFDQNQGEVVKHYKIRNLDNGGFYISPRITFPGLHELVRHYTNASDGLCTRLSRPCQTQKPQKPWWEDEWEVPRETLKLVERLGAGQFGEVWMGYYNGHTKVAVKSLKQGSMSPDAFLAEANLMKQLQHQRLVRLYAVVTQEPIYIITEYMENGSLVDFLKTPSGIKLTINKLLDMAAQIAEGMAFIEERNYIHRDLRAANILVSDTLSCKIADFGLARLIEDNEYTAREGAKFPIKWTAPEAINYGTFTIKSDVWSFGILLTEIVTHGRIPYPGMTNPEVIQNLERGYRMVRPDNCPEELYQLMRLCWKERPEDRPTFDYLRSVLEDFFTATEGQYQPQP
Snk(h), sequence (Q9NYY3 whole entry): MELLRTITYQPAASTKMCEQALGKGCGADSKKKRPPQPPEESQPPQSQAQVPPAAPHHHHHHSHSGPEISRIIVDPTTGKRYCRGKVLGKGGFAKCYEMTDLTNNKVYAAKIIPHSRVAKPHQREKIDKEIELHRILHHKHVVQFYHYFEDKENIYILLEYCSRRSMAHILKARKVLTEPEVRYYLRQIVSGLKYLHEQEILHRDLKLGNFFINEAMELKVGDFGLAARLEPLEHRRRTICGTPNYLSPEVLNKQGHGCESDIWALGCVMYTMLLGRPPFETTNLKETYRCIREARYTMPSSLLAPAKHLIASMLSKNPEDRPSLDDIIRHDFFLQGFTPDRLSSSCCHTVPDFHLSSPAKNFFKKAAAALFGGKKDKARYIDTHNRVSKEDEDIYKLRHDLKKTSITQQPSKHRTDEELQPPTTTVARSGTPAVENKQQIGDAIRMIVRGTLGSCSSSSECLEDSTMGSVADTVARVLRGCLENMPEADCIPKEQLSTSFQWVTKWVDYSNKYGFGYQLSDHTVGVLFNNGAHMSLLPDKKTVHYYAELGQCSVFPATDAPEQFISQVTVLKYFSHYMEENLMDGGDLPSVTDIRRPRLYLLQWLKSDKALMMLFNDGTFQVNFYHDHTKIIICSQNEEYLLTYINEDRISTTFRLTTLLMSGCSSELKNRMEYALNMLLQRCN
DCAMKL2(h), sequence (Q8N568 whole entry): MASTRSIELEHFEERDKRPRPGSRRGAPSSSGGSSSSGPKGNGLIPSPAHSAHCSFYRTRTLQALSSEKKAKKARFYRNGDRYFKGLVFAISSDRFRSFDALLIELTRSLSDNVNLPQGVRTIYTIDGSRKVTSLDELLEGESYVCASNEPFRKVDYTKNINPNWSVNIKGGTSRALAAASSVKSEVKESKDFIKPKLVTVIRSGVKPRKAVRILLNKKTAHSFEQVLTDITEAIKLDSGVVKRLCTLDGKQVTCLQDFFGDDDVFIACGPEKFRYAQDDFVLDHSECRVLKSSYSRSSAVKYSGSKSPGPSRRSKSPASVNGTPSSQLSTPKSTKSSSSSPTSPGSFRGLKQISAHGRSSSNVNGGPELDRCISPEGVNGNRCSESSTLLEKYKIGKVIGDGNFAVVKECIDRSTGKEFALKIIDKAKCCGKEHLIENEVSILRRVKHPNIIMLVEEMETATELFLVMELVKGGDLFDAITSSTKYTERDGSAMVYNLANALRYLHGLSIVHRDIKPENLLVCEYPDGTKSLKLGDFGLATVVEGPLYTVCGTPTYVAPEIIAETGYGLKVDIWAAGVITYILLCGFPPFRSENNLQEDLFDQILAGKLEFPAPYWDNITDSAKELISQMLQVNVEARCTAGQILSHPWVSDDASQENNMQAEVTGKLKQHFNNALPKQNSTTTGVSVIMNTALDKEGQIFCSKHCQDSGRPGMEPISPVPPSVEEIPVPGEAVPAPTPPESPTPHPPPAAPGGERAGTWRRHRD
PDGFRα(h), sequence (P16234 24-1089): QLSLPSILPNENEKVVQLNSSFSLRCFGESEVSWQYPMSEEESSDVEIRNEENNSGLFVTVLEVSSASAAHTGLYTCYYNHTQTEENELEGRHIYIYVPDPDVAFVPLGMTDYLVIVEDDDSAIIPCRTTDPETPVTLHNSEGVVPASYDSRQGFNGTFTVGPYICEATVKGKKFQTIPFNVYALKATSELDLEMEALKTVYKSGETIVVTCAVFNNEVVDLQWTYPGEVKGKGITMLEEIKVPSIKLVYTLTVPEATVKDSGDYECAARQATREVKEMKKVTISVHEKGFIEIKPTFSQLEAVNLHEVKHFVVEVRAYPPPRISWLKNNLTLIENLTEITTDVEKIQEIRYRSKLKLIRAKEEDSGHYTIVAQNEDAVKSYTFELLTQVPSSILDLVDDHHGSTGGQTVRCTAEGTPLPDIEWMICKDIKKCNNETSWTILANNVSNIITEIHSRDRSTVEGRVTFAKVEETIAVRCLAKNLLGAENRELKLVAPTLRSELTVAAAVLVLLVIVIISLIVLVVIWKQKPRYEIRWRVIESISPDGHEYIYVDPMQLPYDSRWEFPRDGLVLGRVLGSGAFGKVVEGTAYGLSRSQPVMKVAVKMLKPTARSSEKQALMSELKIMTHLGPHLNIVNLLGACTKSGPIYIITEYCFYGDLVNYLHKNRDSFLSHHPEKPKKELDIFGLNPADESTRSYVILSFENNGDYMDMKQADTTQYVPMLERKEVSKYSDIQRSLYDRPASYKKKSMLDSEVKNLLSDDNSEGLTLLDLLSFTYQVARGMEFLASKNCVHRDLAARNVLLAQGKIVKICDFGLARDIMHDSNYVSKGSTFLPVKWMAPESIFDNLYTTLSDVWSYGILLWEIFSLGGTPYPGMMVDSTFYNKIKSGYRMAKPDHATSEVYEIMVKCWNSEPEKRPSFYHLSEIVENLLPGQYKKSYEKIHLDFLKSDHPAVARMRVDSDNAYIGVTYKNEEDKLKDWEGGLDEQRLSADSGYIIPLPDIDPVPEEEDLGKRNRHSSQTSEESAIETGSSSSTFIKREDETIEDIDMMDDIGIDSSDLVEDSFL
GRK5(h), sequence (P34947 whole entry): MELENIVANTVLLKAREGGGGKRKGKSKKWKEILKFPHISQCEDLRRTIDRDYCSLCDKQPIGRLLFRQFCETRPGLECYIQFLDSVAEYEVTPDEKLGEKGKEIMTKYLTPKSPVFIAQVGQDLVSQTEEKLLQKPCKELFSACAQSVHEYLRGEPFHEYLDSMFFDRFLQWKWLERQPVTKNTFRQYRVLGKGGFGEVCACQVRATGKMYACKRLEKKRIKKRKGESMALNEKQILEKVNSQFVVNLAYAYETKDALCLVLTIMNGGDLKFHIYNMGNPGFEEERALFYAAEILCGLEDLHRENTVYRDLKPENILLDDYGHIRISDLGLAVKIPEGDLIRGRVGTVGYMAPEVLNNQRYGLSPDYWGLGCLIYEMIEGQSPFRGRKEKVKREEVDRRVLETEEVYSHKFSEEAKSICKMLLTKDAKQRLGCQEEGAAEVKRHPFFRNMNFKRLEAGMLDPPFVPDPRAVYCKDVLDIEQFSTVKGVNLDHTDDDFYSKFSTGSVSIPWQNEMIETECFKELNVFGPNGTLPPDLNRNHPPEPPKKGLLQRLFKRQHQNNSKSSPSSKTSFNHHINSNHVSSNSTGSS

## Nc1n[nH]c2ccc(-c3ccnc4[nH]c(-c5cccc(OCc6ccccc6)c5)cc34)cc12 [Compound 5r [SU1261]]
[1]
  inhibition at 1 µM: 8%
[2]
  inhibition at 1 µM: 23%
[3]
  inhibition at 1 µM: 10%
[4]
  inhibition at 1 µM: 4%
[5]
  inhibition at 1 µM: -4%
[6]
  inhibition at 1 µM: 6%
[7]
  inhibition at 1 µM: -4%
[8]
  inhibition at 1 µM: -9%
[9]
  inhibition at 1 µM: 2%
[10]
  inhibition at 1 µM: -7%
[11]
  inhibition at 1 µM: 25%
[12]
  inhibition at 1 µM: 6%
[13]
  inhibition at 1 µM: 3%
[14]
  inhibition at 1 µM: -8%
[15]
  inhibition at 1 µM: 14%
[16]
  inhibition at 1 µM: 6%
[17]
  inhibition at 1 µM: 32%
[18]
  inhibition at 1 µM: 23%
[19]
  inhibition at 1 µM: 1%
[20]
  inhibition at 1 µM: 20%
[21]
  inhibition at 1 µM: 17%
[22]
  inhibition at 1 µM: 23%
[23]
  inhibition at 1 µM: 31%
[24]
  inhibition at 1 µM: -1%
[25]
  inhibition at 1 µM: 13%
[26]
  inhibition at 1 µM: 13%
[27]
  inhibition at 1 µM: 3%
[28]
  inhibition at 1 µM: 37%
[29]
  inhibition at 1 µM: -12%
[30]
  inhibition at 1 µM: -6%
[31]
  inhibition at 1 µM: -1%
[32]
  inhibition at 1 µM: 6%
[33]
  inhibition at 1 µM: 1%
[34]
  inhibition at 1 µM: 6%
[35]
  inhibition at 1 µM: -7%
[36]
  inhibition at 1 µM: 25%
[37]
  inhibition at 1 µM: -2%
[38]
  inhibition at 1 µM: 7%
[39]
  inhibition at 1 µM: 21%
[40]
  inhibition at 1 µM: 14%
[41]
  inhibition at 1 µM: -4%

## Nc1n[nH]c2ccc(-c3ccnc4[nH]c(-c5ccccc5)cc34)cc12 [Compound 4]
[1]
  inhibition at 1 µM: 25%
[2]
  inhibition at 1 µM: 18%
[3]
  inhibition at 1 µM: 20%
[4]
  inhibition at 1 µM: 5%
[5]
  inhibition at 1 µM: -16%
[6]
  inhibition at 1 µM: 33%
[7]
  inhibition at 1 µM: 5%
[8]
  inhibition at 1 µM: 14%
[9]
  inhibition at 1 µM: 9%
[10]
  inhibition at 1 µM: -2%
[11]
  inhibition at 1 µM: 53%
[12]
  inhibition at 1 µM: 8%
[13]
  inhibition at 1 µM: 5%
[14]
  inhibition at 1 µM: 0%
[15]
  inhibition at 1 µM: 57%
[16]
  inhibition at 1 µM: 26%
[17]
  inhibition at 1 µM: 61%
[18]
  inhibition at 1 µM: 46%
[19]
  inhibition at 1 µM: 26%
[20]
  inhibition at 1 µM: 18%
[21]
  inhibition at 1 µM: 15%
[22]
  inhibition at 1 µM: 44%
[23]
  inhibition at 1 µM: 77%
[24]
  inhibition at 1 µM: 29%
[25]
  inhibition at 1 µM: 12%
[26]
  inhibition at 1 µM: 48%
[27]
  inhibition at 1 µM: 6%
[28]
  inhibition at 1 µM: 42%
[29]
  inhibition at 1 µM: 8%
[30]
  inhibition at 1 µM: 29%
[31]
  inhibition at 1 µM: 9%
[32]
  inhibition at 1 µM: 16%
[33]
  inhibition at 1 µM: 13%
[34]
  inhibition at 1 µM: 10%
[35]
  inhibition at 1 µM: -6%
[36]
  inhibition at 1 µM: 38%
[37]
  inhibition at 1 µM: 1%
[38]
  inhibition at 1 µM: 46%
[39]
  inhibition at 1 µM: 28%
[40]
  inhibition at 1 µM: 34%
[41]
  inhibition at 1 µM: 2%

From publication PMC11314561, “Design and Synthesis of Novel Aminoindazole-pyrrolo[2,3-b]pyridine Inhibitors of IKKα That Selectively Perturb Cellular Non-Canonical NF-κB Signalling” (Molecules, 2024)
